Source: US7192781B2 (Pharmion Corporation, priority 2004, dated 2007)

Key:
[1] = Stability of 5-azacytidine in whole blood; conditions: for Mean [5-aza] / % of Time 0: whole blood;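 on all read-outs here: drug level determined in plasma separated from whole blood, extracted with acetonitrile plus internal standard, then quantified by LC/MS/MS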
[2] = Stability of 5-azacytidine stored as an acetonitrile residue at minus 70° C.; conditions: for % of Time 0 / Mean [5-aza]: acetonitrile residue at minus 70° C.
[3] = Stability of 5-azacytidine stored in acetonitrile/plasma mixtures at different temperatures; conditions: for % of Fresh Prep / Mean [5-aza]: acetonitrile/plasma mixture
[4] = [5-aza] 15 ng/mL, Room Temp, 15 mins
[5] = [5-aza] 15 ng/mL, Room Temp, 30 mins
[6] = [5-aza] 15 ng/mL, Room Temp, 45 mins
[7] = [5-aza] 200 ng/mL, Ice, 15 mins
[8] = [5-aza] 200 ng/mL, Ice, 30 mins
[9] = [5-aza] 200 ng/mL, Ice, 45 mins
[10] = [5-aza] 200 ng/mL, Ice, 60 mins
[11] = [5-aza] 200 ng/mL, Room Temp, 15 mins
[12] = [5-aza] 200 ng/mL, Room Temp, 30 mins
[13] = [5-aza] 200 ng/mL, Room Temp, 45 mins
[14] = [5-aza] 200 ng/mL, Room Temp, 60 mins
[15] = [5-aza] 30 ng/mL, Freeze-thaw (minus 70° C. for 4 days followed by RT for 5.5 hours)
[16] = [5-aza] 400 ng/mL, Freeze-thaw (minus 70° C. for 4 days followed by RT for 5.5 hours)

- degradation in whole blood ([1]; room temperature): rapidly degrades
- degradation in whole blood ([1]; stored on ice, compared with room temperature): slightly reduced rate
- Mean [5-aza] ([1]; [5-aza] 15 ng/mL, Ice, 0 mins): 16.1 (N = 5) ng/mL
- % of Time 0 ([1]; [5-aza] 15 ng/mL, Ice, 15 mins): 80.7%
- Mean [5-aza] ([1]; [5-aza] 15 ng/mL, Ice, 15 mins): 13.0 (N = 4) ng/mL
- % of Time 0 ([1]; [5-aza] 15 ng/mL, Ice, 30 mins): 77.6%
- Mean [5-aza] ([1]; [5-aza] 15 ng/mL, Ice, 30 mins): 12.5 (N = 3) ng/mL
- % of Time 0 ([1]; [5-aza] 15 ng/mL, Ice, 45 mins): 70.8%
- Mean [5-aza] ([1]; [5-aza] 15 ng/mL, Ice, 45 mins): 11.4 (N = 4) ng/mL
- % of Time 0 ([1]; [5-aza] 15 ng/mL, Ice, 60 mins): 71.4%
- Mean [5-aza] ([1]; [5-aza] 15 ng/mL, Ice, 60 mins): 11.5 (N = 5) ng/mL
- Mean [5-aza] ([1]; [5-aza] 15 ng/mL, Room Temp, 0 mins): 16.1 (N = 5) ng/mL
- % of Time 0 [1, 4]: 82.6%
- Mean [5-aza] [1, 4]: 13.3 (N = 5) ng/mL
- % of Time 0 [1, 5]: 71.4%
- Mean [5-aza] [1, 5]: 11.5 (N = 5) ng/mL
- % of Time 0 [1, 6]: 64.0%
- Mean [5-aza] [1, 6]: 10.3 (N = 2) ng/mL
- Mean [5-aza] ([1]; [5-aza] 200 ng/mL, Ice, 0 mins): 152.0 (N = 5) ng/mL
- % of Time 0 [1, 7]: 79.6%
- Mean [5-aza] [1, 7]: 121.0 (N = 5) ng/mL
- % of Time 0 [1, 8]: 73.0%
- Mean [5-aza] [1, 8]: 111.0 (N = 5) ng/mL
- % of Time 0 [1, 9]: 72.4%
- Mean [5-aza] [1, 9]: 110.0 (N = 5) ng/mL
- % of Time 0 [1, 10]: 57.2%
- Mean [5-aza] [1, 10]: 87.0 (N = 5) ng/mL
- Mean [5-aza] ([1]; [5-aza] 200 ng/mL, Room Temp, 0 mins): 152.0 (N = 5) ng/mL
- % of Time 0 [1, 11]: 73.4%
- Mean [5-aza] [1, 11]: 111.6 (N = 5) ng/mL
- % of Time 0 [1, 12]: 57.8%
- Mean [5-aza] [1, 12]: 87.9 (N = 5) ng/mL
- % of Time 0 [1, 13]: 37.3%
- Mean [5-aza] [1, 13]: 56.7 (N = 5) ng/mL
- % of Time 0 [1, 14]: 21.7%
- Mean [5-aza] [1, 14]: 33.0 (N = 5) ng/mL
- time stable as acetonitrile residue ([2]; about minus 70° C., stable = within ±20% of freshly prepared sample): at least 14 months
- % of Time 0 ([2]; [5-aza] 30 ng/mL, 4 Weeks): 90.0%
- Mean [5-aza] ([2]; [5-aza] 30 ng/mL, 4 Weeks): 27.1 (N = 6) ng/mL
- % of Time 0 ([2]; [5-aza] 30 ng/mL, 6 Months): 105.3%
- Mean [5-aza] ([2]; [5-aza] 30 ng/mL, 6 Months): 31.7 (N = 6) ng/mL
- % of Time 0 ([2]; [5-aza] 30 ng/mL, 7 Days): 93.7%
- Mean [5-aza] ([2]; [5-aza] 30 ng/mL, 7 Days): 28.2 (N = 6) ng/mL
- % of Time 0 ([2]; [5-aza] 30 ng/mL, 14 Days): 97.3%
- Mean [5-aza] ([2]; [5-aza] 30 ng/mL, 14 Days): 29.3 (N = 6) ng/mL
- % of Time 0 ([2]; [5-aza] 30 ng/mL, 14 Months): 111.0%
- Mean [5-aza] ([2]; [5-aza] 30 ng/mL, 14 Months): 33.4 (N = 5) ng/mL
- % of Time 0 ([2]; [5-aza] 30 ng/mL, 15 Weeks): 100.7%
- Mean [5-aza] ([2]; [5-aza] 30 ng/mL, 15 Weeks): 30.3 (N = 6) ng/mL
- Mean [5-aza] ([2]; [5-aza] 30 ng/mL, Time 0): 30.1 (N = 6) ng/mL
- % of Time 0 ([2]; [5-aza] 400 ng/mL, 4 Weeks): 95.6%
- Mean [5-aza] ([2]; [5-aza] 400 ng/mL, 4 Weeks): 365 (N = 5) ng/mL
- % of Time 0 ([2]; [5-aza] 400 ng/mL, 6 Months): 97.4%
- Mean [5-aza] ([2]; [5-aza] 400 ng/mL, 6 Months): 372 (N = 5) ng/mL
- % of Time 0 ([2]; [5-aza] 400 ng/mL, 7 Days): 98.7%
- Mean [5-aza] ([2]; [5-aza] 400 ng/mL, 7 Days): 377 (N = 6) ng/mL
- % of Time 0 ([2]; [5-aza] 400 ng/mL, 14 Days): 91.6%
- Mean [5-aza] ([2]; [5-aza] 400 ng/mL, 14 Days): 350 (N = 6) ng/mL
- % of Time 0 ([2]; [5-aza] 400 ng/mL, 14 Months): 115.9%
- Mean [5-aza] ([2]; [5-aza] 400 ng/mL, 14 Months): 443 (N = 5) ng/mL
- % of Time 0 ([2]; [5-aza] 400 ng/mL, 15 Weeks): 103.9%
- Mean [5-aza] ([2]; [5-aza] 400 ng/mL, 15 Weeks): 397 (N = 6) ng/mL
- Mean [5-aza] ([2]; [5-aza] 400 ng/mL, Time 0): 382 (N = 6) ng/mL
- measured 5-azacytidine concentration, deviation from initial concentration in the plasma sample ([2]; samples prepared according to the methods, LC/MS/MS): ≤ 20%
- time stable in acetonitrile layer over plasma layer ([3]; about minus 70° C.): at least 4 days
- time stable in acetonitrile layer over plasma layer (acetonitrile/plasma solution) ([3]; about room temperature, stable = within ±20% of freshly prepared sample): at least 3 hours
- % of Fresh Prep ([3]; [5-aza] 30 ng/mL, 3 hours RT): 98.7%
- Mean [5-aza] ([3]; [5-aza] 30 ng/mL, 3 hours RT): 29.8 (N = 6) ng/mL
- % of Fresh Prep [3, 15]: 103.3%
- Mean [5-aza] [3, 15]: 31.2 (N = 6) ng/mL
- Mean [5-aza] ([3]; [5-aza] 30 ng/mL, Fresh prep.): 30.2 (N = 6) ng/mL
- % of Fresh Prep ([3]; [5-aza] 400 ng/mL, 3 hours RT): 89.4%
- Mean [5-aza] ([3]; [5-aza] 400 ng/mL, 3 hours RT): 371 (N = 6) ng/mL
- % of Fresh Prep [3, 16]: 88.4%
- Mean [5-aza] [3, 16]: 367 (N = 6) ng/mL
- Mean [5-aza] ([3]; [5-aza] 400 ng/mL, Fresh prep.): 415 (N = 6) ng/mL
- time stable in acetonitrile/plasma solution ([3]; minus 70° C. with one freeze-thaw cycle of 5.5 hours at room temperature, stable = within ±20% of freshly prepared sample): at least 4 days
SMILES: Nc1ncn([C@@H]2O[C@H](CO)[C@@H](O)[C@H]2O)c(=O)n1 [5-azacytidine, 4-amino-1-β-D-ribofuranosyl-1,3,5-triazin-2(1H)-one]
